The record followed here is the NIST ThermoML archive (doi:10.1016/j.jct.2016.02.007).

For data set [1] the following is noted: 101.3 kPa, Liquid, Vibrating tube method.
Data set [2] can be described thus: wn = mass fraction of the nth substance listed. To be noted: 101.3 kPa, Liquid, Vibrating tube method, w2 = 0.

± gives the expanded uncertainty stated by the source.

A word on the mass density: it is the mass of a sample divided by its volume. As to `CN(C)CCCO` [3-dimethylamino-1-propanol], the mass density was found to be 886.7 ± 4.8 kg/m3 in data set [1] (293.15 K); 883 ± 4.8 kg/m3 in data set [1] (298.15 K); 879.1 ± 4.8 kg/m3 in data set [1] (303.15 K); 875.1 ± 4.8 kg/m3 in data set [1] (308.15 K); 871.2 ± 4.8 kg/m3 in data set [1] (313.15 K); 867.2 ± 4.8 kg/m3 in data set [1] (318.15 K). In addition, the mass density in data set [1] (323.15 K) is given as 863.1 ± 4.8 kg/m3; in data set [1] (328.15 K), 859.1 ± 4.8 kg/m3; in data set [1] (333.15 K), 855 ± 4.8 kg/m3; in data set [1] (338.15 K), 850.8 ± 4.8 kg/m3; in data set [1] (343.15 K), 846.7 ± 4.8 kg/m3.

In the case of `O` [water], the mass density in data set [1] (313.15 K) is 992.3 ± 1 kg/m3; in data set [1] (318.15 K) it was 990.3 ± 1 kg/m3; in data set [1] (323.15 K) it was 988 ± 1 kg/m3; in data set [1] (328.15 K), 985.6 ± 1 kg/m3; in data set [1] (333.15 K) it was 983.3 ± 1 kg/m3; in data set [1] (338.15 K) it was 980.7 ± 1 kg/m3. Further, the mass density in data set [1] (343.15 K) came to 977.9 ± 1 kg/m3.

Turning to `O` [water] + CN(C)CCCO, the mass density in data set [2] (313.15 K) is 992.3 ± 4.8 kg/m3; in data set [2] (318.15 K), 990.3 ± 4.8 kg/m3; in data set [2] (323.15 K), 988 ± 4.8 kg/m3; in data set [2] (328.15 K), 985.6 ± 4.8 kg/m3; in data set [2] (333.15 K), 983.3 ± 4.8 kg/m3; in data set [2] (338.15 K) it was 980.7 ± 4.8 kg/m3. For the same molecule, in data set [2] (343.15 K), the mass density is 977.9 ± 4.8 kg/m3.
